Measured values from ChEMBL document CHEMBL2440080, “Synthesis and biological evaluation of novel acylhydrazone derivatives as potential antitumor agents” (Bioorg Med Chem, 2013).

What was measured:
Type in all cases: functional
HOP-62 = experiment: Cytotoxicity against human HOP62 cells after 48 hrs by sulforhodamine B assay; details: HOP-62, 48 h
IGROV-1 = experiment: Cytotoxicity against human IGROV1 cells after 48 hrs by sulforhodamine B assay; details: IGROV-1, 48 h
SNB-75 = experiment: Cytotoxicity against human SNB75 cells after 48 hrs by sulforhodamine B assay; details: SNB-75, 48 h
T47D = experiment: Cytotoxicity against human T47D cells after 48 hrs by sulforhodamine B assay
UACC-62 = experiment: Cytotoxicity against human UACC62 cells after 48 hrs by sulforhodamine B assay; details: UACC-62, 48 h
NCI-H460 = experiment: Cytotoxicity against human NCI-H460 cells after 48 hrs by sulforhodamine B assay; details: NCI-H460, 48 h
KM12 = experiment: Cytotoxicity against human KM12 cells after 48 hrs by sulforhodamine B assay; details: KM12, 48 h
TK-10 = experiment: Cytotoxicity against human TK10 cells after 48 hrs by sulforhodamine B assay; details: TK-10, 48 h
SR = experiment: Cytotoxicity against human SR cells after 48 hrs by sulforhodamine B assay
DU-145 = experiment: Cytotoxicity against human DU145 cells after 48 hrs by sulforhodamine B assay; details: DU-145, 48 h
LOX IMVI = experiment: Cytotoxicity against human LOXIMVI cells after 48 hrs by sulforhodamine B assay
RXF 393 = experiment: Cytotoxicity against human RXF393 cells after 48 hrs by sulforhodamine B assay; details: RXF 393, 48 h
CCRF-CEM = experiment: Cytotoxicity against human CCRF-CEM cells after 48 hrs by sulforhodamine B assay
OVCAR-4 = experiment: Cytotoxicity against human OVCAR4 cells after 48 hrs by sulforhodamine B assay; details: OVCAR-4, 48 h
NCI/ADR-RES = experiment: Cytotoxicity against human NCI/ADR-RES cells after 48 hrs by sulforhodamine B assay
PC-3 = experiment: Cytotoxicity against human PC3 cells after 48 hrs by sulforhodamine B assay; details: PC-3, 48 h
HCT-15 = experiment: Cytotoxicity against human HCT15 cells after 48 hrs by sulforhodamine B assay; details: HCT-15, 48 h
[1] = Cytotoxicity against human EKVX cells after 48 hrs by sulforhodamine B assay
HOP-92 = experiment: Cytotoxicity against human HOP92 cells after 48 hrs by sulforhodamine B assay; details: HOP-92, 48 h
SF-268 = experiment: Cytotoxicity against human SF268 cells after 48 hrs by sulforhodamine B assay; details: SF-268, 48 h
CAKI-1 = experiment: Cytotoxicity against human CAKI-1 cells after 48 hrs by sulforhodamine B assay; details: CAKI-1, 48 h
MOLT-4 = experiment: Cytotoxicity against human MOLT4 cells after 48 hrs by sulforhodamine B assay; details: MOLT-4, 48 h
HCT-116 = experiment: Cytotoxicity against human HCT116 cells after 48 hrs by sulforhodamine B assay; details: HCT-116, 48 h
BT-549 = experiment: Cytotoxicity against human BT549 cells after 48 hrs by sulforhodamine B assay; details: BT-549, 48 h
M14 = experiment: Cytotoxicity against human M14 cells after 48 hrs by sulforhodamine B assay; details: M14, 48 h
NCI-H322M = experiment: Cytotoxicity against human NCI-H322M cells after 48 hrs by sulforhodamine B assay
SF-295 = experiment: Cytotoxicity against human SF295 cells after 48 hrs by sulforhodamine B assay; details: SF-295, 48 h
OVCAR-3 = experiment: Cytotoxicity against human OVCAR3 cells after 48 hrs by sulforhodamine B assay; details: OVCAR-3, 48 h
U-251 = experiment: Cytotoxicity against human U251 cells after 48 hrs by sulforhodamine B assay; details: U-251, 48 h
ACHN = experiment: Cytotoxicity against human ACHN cells after 48 hrs by sulforhodamine B assay
HL-60(TB) = experiment: Cytotoxicity against human HL-60(TB) cells after 48 hrs by sulforhodamine B assay; details: HL-60, 48 h
OVCAR-8 = experiment: Cytotoxicity against human OVCAR8 cells after 48 hrs by sulforhodamine B assay; details: OVCAR-8, 48 h
RPMI-8226 = experiment: Cytotoxicity against human RPMI8226 cells after 48 hrs by sulforhodamine B assay; details: RPMI-8226, 48 h

Row | Compound | GI50 (IGROV-1) [µM] | GI50 (SNB-75) [µM] | GI50 (T47D) [µM] | GI50 (UACC-62) [µM] | GI50 (NCI-H460) [µM] | GI50 (KM12) [µM] | GI50 (TK-10) [µM] | GI50 (SR) [µM] | GI50 (DU-145) [µM] | GI50 (LOX IMVI) [µM] | GI50 (RXF 393) [µM] | GI50 (CCRF-CEM) [µM] | GI50 (OVCAR-4) [µM] | GI50 (NCI/ADR-RES) [µM] | GI50 (PC-3) [µM] | GI50 (HCT-15) [µM] | GI50 [1] [µM] | GI50 (HOP-92) [µM] | GI50 (SF-268) [µM] | GI50 (CAKI-1) [µM] | other results
1 | O=C(N/N=C/c1ccc(O)cc1O)c1cccc(Nc2ccnc(C(F)(F)F)c2)c1 | 1.26 | 6.31 | 0.501 | 0.398 | 3.16 | 2.51 | 2.51 | 0.398 | 1.58 | 0.501 | 1.26 | 0.398 | 0.501 | 3.98 | 1.26 | 3.16 | 1 | 1.58 | 0.631 | 3.16 | GI50 (HOP-62): 0.501 µM; GI50 (MOLT-4): 0.631 µM; GI50 (HCT-116): 0.501 µM; GI50 (BT-549): 0.631 µM; GI50 (M14): 0.631 µM; GI50 (NCI-H322M): 0.316 µM; GI50 (SF-295): 2 µM; GI50 (OVCAR-3): 0.316 µM; GI50 (U-251): 0.794 µM; GI50 (ACHN): 2 µM; GI50 (HL-60(TB)): 0.501 µM; GI50 (OVCAR-8): 0.631 µM; GI50 (RPMI-8226): 3.98 µM
2 | CCOc1cccc(/C=N/NC(=O)c2ccc(Nc3ccnc(C(F)(F)F)c3)cc2)c1O | 0.501 | 0.631 | 1.58 | 0.794 | 0.501 | 1.58 | 2.51 | 0.251 | 3.98 | 0.631 | 0.398 | 0.501 | 0.794 | 3.16 | 0.398 | 0.631 | 1 | 0.631 | 1.26 | 0.631 | GI50 (HOP-62): 1.26 µM; GI50 (MOLT-4): 0.251 µM; GI50 (HCT-116): 0.398 µM; GI50 (BT-549): 1.58 µM; GI50 (M14): 1.26 µM; GI50 (NCI-H322M): 1.26 µM; GI50 (SF-295): 1.26 µM; GI50 (OVCAR-3): 0.316 µM; GI50 (U-251): 1.58 µM; GI50 (ACHN): 1 µM; GI50 (HL-60(TB)): 1.26 µM; GI50 (OVCAR-8): 0.631 µM; GI50 (RPMI-8226): 0.398 µM
3 | O=C(N/N=C/c1ccc(O)cc1O)c1ccc(Nc2ccnc(C(F)(F)F)c2)cc1 | 15.8 | 3.98 | 0.0794 | 0.0501 | > 100 | > 100 | 0.0501 | > 100 | 20 | 2.51 | 12.6 | 0.0316 | 0.0398 | > 100 | 20 | > 100 | 6.31 | 15.8 | 0.0398 | 0.0501 | GI50 (HCT-116): 39.8 µM; GI50 (BT-549): 0.01 µM; GI50 (M14): > 100 µM; GI50 (NCI-H322M): 0.0199 µM; GI50 (SF-295): 0.01 µM; GI50 (OVCAR-3): 0.0251 µM; GI50 (U-251): 0.0631 µM; GI50 (ACHN): 31.6 µM; GI50 (HL-60(TB)): 12.6 µM; GI50 (OVCAR-8): 3.16 µM; GI50 (RPMI-8226): > 100 µM
4 | O=C(Cc1ccc(Nc2ccnc(C(F)(F)F)c2)cc1)N/N=C/c1ccccc1O | 0.794 | 2 | 3.98 | 2 | 0.794 | 2 | 7.94 | 0.316 | 5.01 | 1 | 1.58 | 1.26 | 3.16 | 3.16 | 0.794 | 0.631 | 3.16 | 2.51 | 2.51 | 1 | GI50 (HOP-62): 2.51 µM; GI50 (MOLT-4): 1 µM; GI50 (HCT-116): 2 µM; GI50 (BT-549): 2.51 µM; GI50 (M14): 2 µM; GI50 (NCI-H322M): 2.51 µM; GI50 (SF-295): 2.51 µM; GI50 (OVCAR-3): 0.794 µM; GI50 (U-251): 2 µM; GI50 (ACHN): 1.58 µM; GI50 (HL-60(TB)): 2.51 µM; GI50 (OVCAR-8): 2.51 µM; GI50 (RPMI-8226): 1 µM
